From a melting point compilation (Tetko et al.; mined from patent text by program, amines drawn as free bases though some values may be those of a salt)

SMILES | melting point
CCCCc1oc2ccccc2c1C(=O)NCc1ccc2c(-c3ccc(Cl)cc3)c(O)ccc2c1 | 122 to 124 °C
OCCC1(c2ccc(Cl)c(Cl)c2)CNCCO1 (stereo unspecified) | 90 to 91 °C
CC1OC(Cn2cncn2)(c2ccc(Cl)cc2Cl)OC1C (single isomer, unassigned; (-)) | 82.5 °C
CCS(=O)(=O)N1CCN(c2ccc(NC(=O)c3cc(=O)c4cc(F)cc(N5CCN(C)CC5)c4o3)cc2)CC1 | 233 to 234 °C
CC(C)(C)C1=CC(=Cc2ccc(C#N)cc2)C=C(C(C)(C)C)C1=O | 147 to 148 °C
CCOC(=O)c1c(C)nn(-c2ccc(F)cc2)c1N | 129 to 131 °C
C#CCCCOc1ccc(/C=C/C(=O)Nc2ccccc2C(=O)O)cc1OC | 166 to 168 °C
CCCC(=O)NN=C(C)C1CCC=C(C)O1 (stereo unspecified) | 72.8 °C
COC(=O)CSc1cccc(CN)c1 | 72 °C
CS(=O)(=O)Nc1ccc2c(c1)C(=O)CC1(CCN(CCc3ccc(Cl)nc3)CC1)O2 | 213 to 215 °C
CC(C)(C)C1=CC(=S)N=N1 | 147 to 148 °C
CC12CCC3C(CCC4=CC(=O)CCC43CO)C1CCC2O (stereo unspecified) | 205 to 207 °C
CCOC(=O)CNc1ccc(NS(C)(=O)=O)cc1 | 135 to 138 °C
O=C1c2ccccc2-c2c1nc(Cl)c1ccccc21 | 242 to 244 °C
CONC(=O)Nc1ccc(-c2sc3c(c2CN(C)C(C)(C(=O)O)c2ccccc2)c(=O)n(-c2ccccc2)c(=O)n3Cc2c(F)cccc2F)cc1 (stereo unspecified) | 147 to 149 °C
CC(=O)n1cc(O)c2cc(Br)ccc21 | 180 to 182 °C
COC(=O)CCCCCOc1ccc(NC(=O)CO)cc1 | 91.5 to 94 °C
CC(C(=O)O)C1CCCCC1 (stereo unspecified) | 63 to 64 °C
c1ccnc2ccccc2c2ccccc2cc1 | 165 to 167 °C
CCCCc1nc(N)c(C(=O)OCC)[nH]1 | 103 to 106 °C
CS(=O)(=O)c1ccc(-n2cc(C(F)(F)F)nc2-c2ccc(-c3cccs3)cc2)cc1 | 95 to 97 °C
COCOc1ccc(-n2c(SCc3ccc(Br)cc3)nc3ccc(Cl)cc32)cc1 | 123 to 124 °C

SMILES | melting point
CCCCCCCCCCCCCCCCCCOc1cccc(C(=O)OC)c1O | 57 to 60 °C
COC(=O)C(=O)Nc1ccccc1C(C)(C)C | 61.7 to 63.6 °C
CC(=C(C#N)C(N)=O)c1ccc(Cl)cc1 | 165 to 167 °C
CCCC(C)COc1cc(CCl)c(OC)cc1CCl (stereo unspecified) | 78 to 80 °C
O=C1c2ccc(Cl)cc2CC1S(=O)(=O)c1ccccc1 (stereo unspecified) | 133 °C
CCCOc1nc(N)c2ncn(C3CCCCO3)c2n1 (stereo unspecified) | 138 to 140 °C
CCc1cccc(N)c1C(=O)O | 99 to 104 °C
CN(C)C(=O)C1CCCN(c2cc3ccccc3c(=O)[nH]2)C1 (stereo unspecified) | 187 to 188 °C
CC(=O)NCC(=O)NS(=O)(=O)c1ccc(-c2c(-c3ccccc3)noc2C)cc1 | 218 to 219 °C
COc1ccc(C(=O)N2c3ccccc3C(n3c4ccccc4c4ccccc43)=CC2C)cc1OC (stereo unspecified) | 184 to 185 °C
OCc1ccc(-c2cccc(-c3cn([C@H]4CN5CCC4CC5)nn3)c2)s1 | 176 °C
O=C1CCC(N2Cc3cc(CNC(=O)c4cccc(Cl)c4)ccc3C2=O)C(=O)N1 (stereo unspecified) | 293 to 295 °C
CON=Cc1nn(-c2c(Cl)cc(C(F)(F)F)cc2Cl)c(N)c1S(C)=O (stereo unspecified) | 80 °C
CC(=O)OCc1cc(C(C)=O)ccc1OC(C)=O | 47 to 48 °C
CCOC(=O)CC(C)Nc1ccc(OC)c(OC)c1 (stereo unspecified) | 59 to 60 °C
CCOC(=O)c1nc(-c2ccc(Cl)cc2)c(F)c(N)c1Cl | 103 to 104 °C
COc1ccccc1N1CCN(CCn2c(=O)c3sccc3n(C)c2=O)CC1 | 149 to 151 °C
CNc1c(Cl)cc(C(=O)NCC2CCN(CCCOC)CC2)c2nccn12 | 125 °C
CCCCC(CC)c1nc2cc(O)c(C#N)c(C)n2n1 (stereo unspecified) | 253 to 254 °C
CC=CN1C(=O)CN(c2ccccc2)C1=S | 74 °C
NS(=O)(=O)OCCN1CCCC1=O | 110 to 112 °C
CN(C)C(=O)c1nc2cnc3ccccc3c2[nH]1 | 284 to 286 °C

SMILES | melting point
Cc1nc2cc(NC(=O)NC34CC5CC(CC(C5)C3)C4)ccc2s1 | 209 to 214 °C
O=C(O)Cc1ccc(OCc2ccc3ccccc3n2)c(-n2cccc2)c1 | 173 °C
C=CCn1c(SCCF)n[nH]c1=O | 65 °C
CS(=O)(=O)c1ccc(-c2cnn(Cc3ccccn3)c(=O)c2-c2ccc(F)cc2)cc1 | 182 to 184 °C
COc1ccc(-n2cnc3ccc(-c4nnc(SCc5ccc(OC)c(C(F)(F)F)c5)o4)cc32)cc1 | 163 to 164 °C
O=C(O)c1cn2c3c(cccc3c1=O)CCC2 | 256 to 258 °C
CCOC(=O)Cn1c(=O)c(=O)[nH]c2ccc3ccc(N)cc3c21 | > 250 °C
Nc1cccc(C(=O)N(CCN2CCC(C(=O)c3ccc(F)cc3)CC2)c2ccc(F)cc2)c1 | 159 to 162 °C
C[C@H](CN(O)C(N)=O)NC(=O)OC(C)(C)C | 156 to 160 °C
CCCSc1nc2cc(C)c(C)cc2[nH]1 | 122 to 123 °C
COc1ccc(CNC(=O)c2ccc3c(c2)c(=O)n(Cc2ccccc2)c(=O)n3C)cc1 | 191 °C
CC(=O)Nc1ccccc1C(C)=O | 99 to 100 °C
N#Cc1ccc(SC2SCC(O)C(O)C2O)cc1 (stereo unspecified) | 175 °C
CCN1C[C@@H](O)[C@H](N(CCc2ccccc2)C(=O)c2ccccc2)C1 (relative stereo) | 71 to 75 °C
O=C(NCCCCCCOC(=O)N1CCC2(CCCC2)CC1)OC1CCN(C(=O)Oc2ccc3oc4ccccc4c3c2)CC1 | 100 to 102 °C
CCn1c(=O)c2[nH]c(/C=C/c3cccc(Br)c3)nc2n(CC)c1=O | > 270 °C
CCC(CC)(CO)CCCS(=O)(=O)N=CN(C)C | 87 to 88 °C
CC(=O)NCC1CN(c2ccc(N3CCN(C(=O)COC(=O)CCN(C)C)CC3)c(F)c2)C(=O)O1 (stereo unspecified) | 136 to 137 °C
CCCC(=O)Nc1cnc2cc(F)ccc2c1O | 306 to 308 °C
CC1(C)CCc2c(ccc3c2C(=O)C(Cl)=CC3=O)O1 | 140 to 142 °C
Cc1nc2c(s1)CCN(C(=O)c1ccc(NC(=O)c3ccccc3-c3ccccc3)cc1)c1ccccc1-2 | 165 to 168 °C
CC(=O)OC1CSC(Oc2c(C)ccnc2Cl)C(OC(C)=O)C1OC(C)=O (stereo unspecified) | 144 °C

SMILES | melting point
COC1(c2cccc(OCc3ccc4ccc(F)cc4c3)c2)CC(C)OC(C)C1 (stereo unspecified) | 77 °C
COc1ccc(C2=NC(NC(=O)Nc3ccc(C(=O)c4ccccc4)cc3)c3nnc(C)n3-c3ccccc32)cc1 (stereo unspecified) | 225 °C
Nc1nc(N)c(CCCCc2csc(OC(=O)N[C@@H](CCC(=O)O)C(=O)O)c2)c(O)n1 | 235 to 236 °C
CC(C)N(C(=O)COc1nnc(C(F)F)s1)c1cccc(Cl)c1 | 98 °C
NNC(=O)c1ccc2oc3ccccc3c2c1 | 216 to 218 °C
COC(=O)C(O)C1OC(n2cnc3c(N)ncnc32)C(O)C1O (stereo unspecified) | 215 to 217 °C
Cc1nc(CN(C)C)n(-c2ccc(Cl)cc2C(=O)c2ccccc2Cl)c1CO | 164 to 166 °C
CCCCCCCCCCCCCCCCCC(=O)NN(C(=O)CCCCCCCCCCCCCCCCC)C(=O)CCC(=O)NN | 248 to 252 °C
O=C(c1ccccn1)c1csc(-c2ccccc2)n1 | 95 to 97 °C
CCCCC(=O)Nc1c(N)ccnc1Cl | 163 °C
COc1cccc(CN2Cc3cc(OC)c(OCc4ccccc4)cc3C(O)C2)c1 (stereo unspecified) | 115 to 116 °C
CN(C)S(=O)(=O)c1ccc2c(c1)S(=O)(=O)NC(C1CCCCC1)N2 (stereo unspecified) | 243 to 245 °C
C#Cc1[nH]c2cccc3c2c1CC1C3CC(NC(=O)N(CC)CC)CN1C (stereo unspecified) | 192 °C
COc1cc(COc2ccc3nc(NC(=O)OCC(O)CO)cn3n2)cc(OC)c1OC (stereo unspecified) | 175 to 176 °C
O=C(O)CCCc1cnoc1-c1ccccc1 | 67 to 68 °C
COC(=O)c1ccc(C#N)c(OC)n1 | 125 °C
CCCc1ccc(NC(C)=O)cn1 | 122 to 124 °C
COc1c(C)c2c(c(O)c1CC1=C(C)CC(C(=O)O)C1)C(=O)OC2 (stereo unspecified) | 208 to 211 °C
CNC(=O)c1c(NC(=O)c2cc(C(F)(F)F)nn2-c2ncccc2Cl)ccc2ncccc12 | 210 to 211 °C
O=C1C=CC(O)(c2nccs2)C=C1 | 138 to 139 °C
O=C1NC(=O)C(N2C(=O)c3ccccc3C2=O)CC1O (stereo unspecified) | 195 to 230 °C
C[C@@H](c1ccc(/C=C/c2ccnn2C)cc1)[C@](O)(Cn1cncn1)c1ccc(F)cc1F | 81 to 83 °C

SMILES | melting point
COc1ccc(CCN(C)C)c2[nH]c(=S)[nH]c12 | 213 to 216 °C
Cc1ccc2nc(N3CC[C@@H](O)C3)ccc2c1NC(=O)CC1CCCCC1 | 248 to 249 °C
COc1nc(Cl)ccc1C(=O)O | 210 to 215 °C
CN1CC(O)C(O)C(O)C1CO (stereo unspecified) | 142 to 143 °C
COc1ccccc1-n1c(=O)[nH]c2c(C(N)=O)nc(C3CCCC3)nc21 | 244 to 246 °C
CCCCn1c(=O)[nH]c2cccc(OCC3CO3)c21 (stereo unspecified) | 226 to 227 °C
Nc1ccc2nc(-c3cccnc3)nn2c1 | 230 °C
COc1ccc(-c2nc(Sc3ccccc3)n(C)c2-c2ccc(OC)cc2)cc1 | 115 to 117 °C
O=C(Cn1ccnc1)c1cc(Br)cc2ccccc12 | 242 to 244 °C
Cc1ccccc1CO[C@H]1COCO[C@H]1C (relative stereo) | 54 °C
CCOC(=O)C1=Cc2cc(Cl)ccc2NC1C(F)(F)F (stereo unspecified) | 133 to 134 °C
CCCCCCCCC(O)C=Cc1cccc(Oc2cccc(C(=O)O)c2)n1 (racemic) | 85 to 87 °C
Nc1c(Cl)cc(C(=O)O)c2c1CCO2 | 258 °C
COCc1c(C(=O)OC(C)C)ncc2[nH]c3cccc(-c4cccs4)c3c12 | 160 to 162 °C
COc1ccccc1NC(=O)Nc1nc(Nc2ccccc2-c2ccccc2)nc(N(CCC(=O)O)Cc2ccccc2C(F)(F)F)n1 | 216 to 219 °C
Cc1ccc(OCC2CN=C(N)O2)c(C)c1 (stereo unspecified) | 116 °C
O=C1c2cccc(F)c2C(=O)N1CCN1CCC(c2noc3cc(F)ccc23)CC1 | 142 to 143 °C
C=CCn1c(-c2ccccc2[N+](=O)[O-])nc2ccccc21 | 81.5 to 83 °C
